“Also recorded” adds a separate entry of the source.
Key:
hair cells = experiment: High-throughput screen of FDA approved compound library for protection against aminoglycoside-induced hair cell death; type: in vivo, zebrafish; details: library of 1040 FDA approved compounds, high-throughput assay
Experimental: (§1) Zebrafish eggs of the AB/Wik wild-type strain were generated and maintained until 5 days post-fertilization temporally corresponding to the developmental maturation of the lateral line hair cells. 5 day postfertilization larvae were prelabeled with the fluorescent dyes FM 1-43, 3 μM (30 sec), and Yo-Pro-1, 2 μM (30 min) to identify the hair cells. Larvae were arrayed into 96 well plates containing embryo media. Synthetic small molecules from the Chembridge Corporation, San Diego, were transferred into the wells for a final concentration of 10 μM (0.05% DMSO). Following a one hour exposure to the compounds fish were treated with neomycin for an additional hour. Larvae were then analyzed in vivo with an epifluorescent Zeiss Axiovert 200M microscope with automated stage and a 40× objective to determine hair cell viability following neomycin exposure.
A library of 1040 FDA approved compounds (NINDS Custom Collection II, Microsource, Inc.) were screened using a high-throughput assay.

[1] = system: lateral line hair cells of zebrafish; experiment: Protection against cisplatin-induced lateral line hair cell death; type: in vivo, zebrafish (Danio rerio); details: for protective against toxic effects of cisplatin on hair cells (identified by screening): exemplified platinum coordination complex (cisplatin)
Experimental: (§2) Larvae were placed in a transfer device fashioned from a 50 ml conical tube with one end cut off and a mesh cover at the bottom. FM 1-43 (n-(3-triethylammoniumpropyl)-4-(4-dibutylamino]-styryl)pyridinium dibromide; Molecular Probes, Eugene, Oreg.) labeling of lateral line neuromasts was achieved by immersing free swimming larvae in 3 μM FM 1-43 in embryo medium for 30 seconds followed by 3 rinses in embryo medium. Using this procedure FM 1-43 is restricted to hair cells in neuromasts (Seiler and Nicolson, J Neurobiol (1999) 41:424-34). Yo-Pro-1 (Molecular Probes, Eugene, Oreg.) labeling of hair cell nuclei in lateral line neuromasts was achieved using a similar technique, incubating larvae in 2 μM Yo-Pro-1 in embryo medium for 30 minutes followed by 3 rinses. Using this procedure only the nuclei of hair cells are labeled.
Cisplatin from a 200 mM stock solution in DMSO (Sigma) was diluted in embryo medium to final concentrations of 300 μM, 500 μM, and 1 mM (0.05% DMSO) in each well of a six-well culture plate. Following vital dye staining live free-swimming five dpf larvae were transferred from control (neomycin-free) embryo medium to cisplatin-containing medium and incubated for 3 h.
To determine if compound F5 is protective against the otoxic effects of cisplatin, larvae were pretreated with compound F5 10 μm for 1 hour, exposed the larvae to 0, 300 μM, 500 μM and 1 mM of cisplatin for 3 hours, counted hair cells and compared to untreated controls.

[2] = system: lateral line hair cells of zebrafish; experiment: Protection of zebrafish lateral line hair cells against neomycin-induced hair cell death; type: in vivo, zebrafish (Danio rerio); design: protection of hair cells from neomycin induced hair cell death in the small molecule screen: dose or concentration left out as unconfirmed; details: for protective against toxic effects of neomycin on hair cells (identified by screening): exemplified aminoglycoside (neomycin); for protection of hair cells from neomycin induced hair cell death in the small molecule screen: 5 dpf larvae, pretreated with compound at 10 μm, exposed to neomycin, hair cells evaluated after 1 hour; for long lasting protection, hair cell counts (FM 1-43) after neomycin: 200 μm neomycin, 24 hours post treatment; for protective effect against neomycin (dose finding): pretreated at 0-200 μM compound, neomycin 200 μM, compared to controls
Experimental: Zebrafish embryos were produced by paired matings of adult fish maintained at 28.5° C. in the University of Washington zebrafish facility. Beginning at 4 days post fertilization (dpf), larvae were fed live paramecia. Larvae were maintained at a density of 50 per 100 mm^2 petri dish in embryo medium (1 mM MgSO4, 120 μM KH2PO4, 74 μM Na2HPO4, 1 mM CaCl2, 500 μM KCl, […], and 500 μM NaHCO3 in dH2O) in a tissue incubator at 28.5° C. All animal procedures were approved by the University of Washington institutional Animal Care and Use Committee,
as §2, §1
Neomycin sulfate from a 50 mM stock solution in dH2O (Sigma) was diluted in embryo medium to final concentrations of 25 μM, 50 μM, 100 μM, 200 μM and 400 μM in each well of a six-well culture plate. Following vital dye staining live free-swimming five dpf larvae were transferred from control (neomycin-free) embryo medium to neomycin-containing medium and incubated for 1 h. For time-lapse imaging, neomycin-containing medium was added directly to the imaging chamber.
In order to identify compounds that protect hair cells of the lateral line from the toxic effects of the aminoglycoside neomycin, 10,960 small molecules were screened. 5 dpf larvae were double labeled with the fluorescent dyes FM 1-43 and Yo-Pro-1, pretreated with the compounds at a dose of 10 μm, exposed to […], and their hair cells evaluated after 1 hour, FIG. 1.
To identify the optimal dose for evaluating the compounds' protective effects, larvae were pretreated with both compounds at 0, 1, 10, 50, 100 and 200 μM, and exposed to neomycin at 200 μM and compared to controls.
The neomycin susceptibility of larvae pretreated with 10 μM of compound F5 and controls at 0, 25, 100, 200 and 400 μm neomycin were compared.
To evaluate the protection conferred by compounds F5 and H10, hair cell counts were compared using the fluorescent dye FM 1-43 to identify hair cells in larvae pretreated with compound and controls, exposed to 200 μm neomycin after 24 hours, 48 hours and 72 hours. […] At 48 hours and beyond the protective effects of compound F5 and H10 cannot be determined as the larvae have repopulated the neuromasts with regenerated hair cells, FIG. 5.

lateral line hair cells = experiment: Mechanotransduction-dependent activity of lateral line hair cells measured by FM 1-43 uptake; type: in vivo, zebrafish; details: pretreated 1 hour at 10 μm, FM 1-43 3 μM for 30 seconds
Experimental: To test whether compounds F5 and H10 inhibit mechanotransduction-dependent activity of lateral line hair cells, larvae were incubated in the dye FM1-43. Larvae were pretreated with each compound for 1 hour at 10 μm and exposed to FM 1-43, 3 μM, for 30 seconds. […] Neither compound F5 nor compound H10 inhibited the uptake of FM1-43, FIG. 7.

[3] = system: zebrafish lateral line hair cells; experiment: Neomycin-induced hair cell death of zebrafish lateral line hair cells; type: in vivo; details: 5 dpf larvae, 1 hour exposure to 200 μM, FM 1-43 and Yo-Pro-1 labeling
Experimental: FIGS. 1A and 1B illustrate labeling and neomycin-induced hair cell death of zebrafish lateral line hair cells. FIG. 1A depicts 5 days post fertilization (dpf) larvae hair cells labeled with FM 1-43 (red) to identify the cytoplasm of hair cells and Yo-Pro-1 (green) labeling the nucleus. […] Cytoplasmic (red) and nuclear fragments (green) are visible in FIG. 1B.
as §2
Neomycin sulfate from a 50 mM stock solution in dH2O (Sigma) was diluted in embryo medium to final concentrations of 25 μM, 50 μM, 100 μM, 200 μM and 400 μM in each well of a six-well culture plate. […]

Nc1c2c(nc3ccccc13)CCCC2 [9-amino-1,2,3,4-tetrahydroacridine]
protection against aminoglycoside-induced hair cell death (screen hit) (hair cells): protect against aminoglycoside-induced hair cell death

COc1ccccc1OCCNCC(O)COc1cccc2[nH]c3ccccc3c12 (centres unmarked) [Carvedilol]
protection against aminoglycoside-induced hair cell death (screen hit) (hair cells): protect against aminoglycoside-induced hair cell death

Cc1cccc(C(=O)NC(NC(=S)Nc2sc3c(c2C(N)=O)CCCC3)C(Cl)(Cl)Cl)c1 (centres unmarked) [Compound A, 2-{{({2,2,2-trichloro-1-[(3-methylbenzoyl)amino]ethyl}amino)carbonothioyl]amino}-4,5,6,7-tetrahydro-1-benzothiophene-3-carboxamide]
protective against toxic effects of cisplatin on hair cells (identified by screening) [1]: protective | protective against toxic effects of neomycin on hair cells (identified by screening) [2]: protective

NC(=O)c1c(NC(=O)Nc2ccc(Cl)cc2)sc2c1CCCC2 [Compound B, 2-({[(4-chlorophenyl)amino]carbonyl}amino)-4,5,6,7-tetrahydro-1-benzothiophene-3-carboxamide]
protective against toxic effects of cisplatin on hair cells (identified by screening) [1]: protective | protective against toxic effects of neomycin on hair cells (identified by screening) [2]: protective

NC(=O)c1c(NC(=O)c2ccc(Cl)c([N+](=O)[O-])c2)sc2c1CCCC2 [Compound C, 2-[(4-chloro-3-nitrobenzoyl)amino]-4,5,6,7-tetrahydro-1-benzothiophene-3-carboxamide]
protective against toxic effects of cisplatin on hair cells (identified by screening) [1]: protective | protective against toxic effects of neomycin on hair cells (identified by screening) [2]: protective

NC(=O)c1c(NC(=O)CN2CCCCC2)sc2c1CCCC2 [Compound D, 2-[(1-piperidinylacetyl)amino]-4,5,6,7-tetrahydro-1-benzothiophene-3-carboxamide]
protective against toxic effects of cisplatin on hair cells (identified by screening) [1]: protective | protective against toxic effects of neomycin on hair cells (identified by screening) [2]: protective

CCN1CCc2c(sc(NC(=O)Nc3ccc(Cl)cc3)c2C(N)=O)C1 [Compound F5, 2-({[(4-chlorophenyl)amino]carbonyl}amino)-6-ethyl-4,5,6,7-tetrahydrothieno[2,3-c]pyridine-3-carboxamide]
protective against toxic effects of cisplatin on hair cells (identified by screening) [1]: protective | protection against cisplatin induced hair cell death (hair cell counts) ([1]; pretreated 10 μm for 1 hour, 0, 300 μM, 500 μM and 1 mM cisplatin for 3 hours): significant protection against cisplatin induced hair cell death; also recorded: protective against cisplatin-induced lateral Sine hair cell death | neomycin susceptibility of pretreated larvae versus controls ([2]; 10 μM compound pretreatment, 0, 25, 100, 200 and 400 μm neomycin): less susceptible to neomycin than controls; also recorded: protects lateral line hair cells against neomycin | protection of hair cells from neomycin induced hair cell death in the small molecule screen [2]: protect hair cells from neomycin induced hair cell death | long lasting protection, hair cell counts (FM 1-43) after neomycin [2]: Significant protection; also recorded: protective through 24 hours post neomycin treatment | protective against toxic effects of neomycin on hair cells (identified by screening) [2]: protective | protective effect against neomycin (dose finding) [2]: protective against neomycin | inhibition of FM 1-43 uptake (mechanotransduction-dependent activity) (lateral line hair cells): do not inhibit mechanotransduction-dependent activity; also recorded: do not prevent the rapid uptake of FM1-43

COc1ccc(C(=O)NC(NC(=S)Nc2sc3c(c2C(N)=O)CCCC3)C(Cl)(Cl)Cl)cc1 (centres unmarked) [Compound H10, 2-{[({2,2,2-trichloro-1-[(4-methoxybenzoyl)amino]ethyl}amino)carbonothioyl]amino}-4,5,6,7-tetrahydro-1-benzothiophene-3-carboxamide]
protective against toxic effects of cisplatin on hair cells (identified by screening) [1]: protective | protection of hair cells from neomycin induced hair cell death in the small molecule screen [2]: protect hair cells from neomycin induced hair cell death | long lasting protection, hair cell counts (FM 1-43) after neomycin [2]: Significant protection; also recorded: protective through 24 hours post neomycin treatment | protective against toxic effects of neomycin on hair cells (identified by screening) [2]: protective | optimal protective dose against 200 μM neomycin ([2]; larvae pretreated at 0, 1, 10, 50, 100 and 200 μM compound, 200 μM neomycin): 1 µM | protective effect against neomycin (dose finding) [2]: protective against neomycin | inhibition of FM 1-43 uptake (mechanotransduction-dependent activity) (lateral line hair cells): do not inhibit mechanotransduction-dependent activity; also recorded: do not prevent the rapid uptake of FM1-43

CCN(CC)CCOC(=O)C(c1ccccc1)C1CCCCC1 (centres unmarked) [Drofenine]
protection against aminoglycoside-induced hair cell death (screen hit) (hair cells): protect against aminoglycoside-induced hair cell death

NC(N)=NC(=O)c1nc(Cl)c(N2CCCCCC2)nc1N [N,N-hexamethyleneamiloride]
protection against aminoglycoside-induced hair cell death (screen hit) (hair cells): protect against aminoglycoside-induced hair cell death

CC(COc1ccccc1)N(CCCl)Cc1ccccc1 (centres unmarked) [Phenoxybenzamine]
protection against aminoglycoside-induced hair cell death (screen hit) (hair cells): protect against aminoglycoside-induced hair cell death

neomycin
hair cell death after neomycin exposure [3]: undergo apoptotic death

From patent publication US8232314B2, “Compounds that protect against sensory hair cell death” (University of Washington, priority 2005, dated 2012)
